Assay results taken from ChEMBL document CHEMBL1154749, “P2'-truncated BACE-1 inhibitors with a novel hydroxethylene-like core” (Eur J Med Chem, 2010).

Target: Beta-secretase 1 (Homo sapiens, UniProt P56817)
Test: Inhibition of human brain BACE1 expressed in Escherichia coli BL21(DE) by TRF assay

Sequence of Beta-secretase 1 (P56817 whole entry): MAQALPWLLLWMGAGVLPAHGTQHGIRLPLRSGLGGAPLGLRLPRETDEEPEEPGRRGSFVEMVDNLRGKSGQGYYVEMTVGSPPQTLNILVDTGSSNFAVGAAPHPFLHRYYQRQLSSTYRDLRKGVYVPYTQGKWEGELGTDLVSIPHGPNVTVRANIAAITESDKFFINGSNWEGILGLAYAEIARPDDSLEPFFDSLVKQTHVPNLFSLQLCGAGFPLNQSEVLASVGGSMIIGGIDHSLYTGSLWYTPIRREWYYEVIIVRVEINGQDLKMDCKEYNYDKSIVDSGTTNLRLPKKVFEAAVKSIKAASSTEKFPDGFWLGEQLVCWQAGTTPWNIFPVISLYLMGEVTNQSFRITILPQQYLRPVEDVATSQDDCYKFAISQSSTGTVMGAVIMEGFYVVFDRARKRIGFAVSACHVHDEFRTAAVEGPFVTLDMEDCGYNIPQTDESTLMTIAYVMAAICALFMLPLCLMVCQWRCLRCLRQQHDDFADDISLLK

IC50 | SMILES
> 10000 nM | COc1cccc(COC[C@@H](C[C@H](O)[C@H](COc2cc(F)cc(F)c2)NC(=O)c2cc(C(=O)N[C@H](C)c3ccccc3)cc(N(C)S(C)(=O)=O)c2)OC)c1
1500 nM | CCc1cn2c3c(ccc(C(=O)N[C@@H](COc4cc(F)cc(F)c4)[C@@H](O)C[C@H](COCc4ccc(OC)cc4)OC)c13)N(C)S(=O)(=O)CC2
> 10000 nM | CO[C@@H](CO)C[C@H](O)[C@H](COc1cc(F)cc(F)c1)NC(=O)c1cc(C(=O)N[C@H](C)c2ccccc2)cc(N(C)S(C)(=O)=O)c1
1800 nM | COc1ccc(COC[C@@H](C[C@H](O)[C@H](COc2cc(F)cc(F)c2)NC(=O)c2cc(N(C)C[C@H]3C[C@@H]3C)nc(N(C)S(C)(=O)=O)c2)OC)cc1
> 10000 nM | CO[C@@H](CNCc1ccccc1)C[C@H](O)[C@H](COc1cc(F)cc(F)c1)NC(=O)c1cc(C(=O)N[C@H](C)c2ccccc2)cc(N(C)S(C)(=O)=O)c1
140 nM | COc1ccc(COC[C@@H](C[C@H](O)[C@H](COc2cc(F)cc(F)c2)NC(=O)c2cc(C(=O)N[C@H](C)c3ccccc3)cc(N(C)S(C)(=O)=O)c2)OC)cc1
1500 nM | CO[C@@H](CNc1ccccc1)C[C@H](O)[C@H](COc1cc(F)cc(F)c1)NC(=O)c1cc(C(=O)N[C@H](C)c2ccccc2)cc(N(C)S(C)(=O)=O)c1
240 nM | CO[C@@H](COCc1ccccc1)C[C@H](O)[C@H](COc1cc(F)cc(F)c1)NC(=O)c1cc(C(=O)N[C@H](C)c2ccccc2)cc(N(C)S(C)(=O)=O)c1
1860 nM | CO[C@@H](COCC1CC1)C[C@H](O)[C@H](COc1cc(F)cc(F)c1)NC(=O)c1cc(C(=O)N[C@H](C)c2ccccc2)cc(N(C)S(C)(=O)=O)c1
2030 nM | C=CCOC[C@@H](C[C@H](O)[C@H](COc1cc(F)cc(F)c1)NC(=O)c1cc(C(=O)N[C@H](C)c2ccccc2)cc(N(C)S(C)(=O)=O)c1)OC
> 10000 nM | CO[C@@H](CNCc1ccccc1)C[C@@H](O)[C@H](COc1cc(F)cc(F)c1)NC(=O)c1cc(C(=O)N[C@H](C)c2ccccc2)cc(N(C)S(C)(=O)=O)c1
480 nM | CO[C@@H](COC(C)C)C[C@H](O)[C@H](COc1cc(F)cc(F)c1)NC(=O)c1cc(C(=O)N[C@H](C)c2ccccc2)cc(N(C)S(C)(=O)=O)c1
> 10000 nM | COC[C@@H](C[C@H](O)[C@H](COc1cc(F)cc(F)c1)NC(=O)c1cc(C(=O)N[C@H](C)c2ccccc2)cc(N(C)S(C)(=O)=O)c1)OC
6500 nM | CO[C@@H](COc1ccccc1)C[C@H](O)[C@H](COc1cc(F)cc(F)c1)NC(=O)c1cc(C(=O)N[C@H](C)c2ccccc2)cc(N(C)S(C)(=O)=O)c1
> 10000 nM | CO[C@@H](COCc1ccc(F)cc1)C[C@H](O)[C@H](COc1cc(F)cc(F)c1)NC(=O)c1cc(C(=O)N[C@H](C)c2ccccc2)cc(N(C)S(C)(=O)=O)c1
1500 nM | CO[C@@H](CNc1ccc(F)cc1)C[C@H](O)[C@H](COc1cc(F)cc(F)c1)NC(=O)c1cc(C(=O)N[C@H](C)c2ccccc2)cc(N(C)S(C)(=O)=O)c1
